pKi: −log10 of the molar value. Non-standard residues stand in square brackets, D forms with d. Residues, ends and D or L forms follow the SMILES beside them. *: point of attachment. Phe(4-NO2) = N[C@@H](Cc1ccc([N+](=O)[O-])cc1)C(=O)O; Tyr(3,5-I2) = N[C@@H](Cc1cc(I)c(O)c(I)c1)C(=O)O; Phe(4-Cl) = N[C@@H](Cc1ccc(Cl)cc1)C(=O)O; 1Nal = N[C@@H](Cc1cccc2ccccc12)C(=O)O; 2Nal = N[C@@H](Cc1ccc2ccccc2c1)C(=O)O; hPhe = N[C@@H](CCc1ccccc1)C(=O)O; tBuAla = CC(C)(C)C[C@H](N)C(=O)O; Cha = N[C@@H](CC1CCCCC1)C(=O)O; Pra = C#CC[C@H](N)C(=O)O; Nva = CCC[C@H](N)C(=O)O; Cbz = O=C(OCc1ccccc1)*; Boc = CC(C)(C)OC(=O)*; Bn = c1ccc(C*)cc1
Each compound was assayed against T1, 20S proteasome (Oryctolagus cuniculus, UniProt G1T4Q9) (assay: Inhibition of the 20S proteasome (kinetic experiments, Ki)). Conditions: Table V, miscellaneous tripeptide aldehydes; 20S proteasome.
T1 sequence (G1T4Q9 60-263): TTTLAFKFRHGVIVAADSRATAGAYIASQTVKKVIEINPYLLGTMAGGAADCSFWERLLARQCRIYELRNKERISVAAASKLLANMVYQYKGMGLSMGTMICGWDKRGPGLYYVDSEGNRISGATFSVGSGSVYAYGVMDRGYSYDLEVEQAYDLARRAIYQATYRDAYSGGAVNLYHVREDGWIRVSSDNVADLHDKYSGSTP
Format: biochemical, Rabbit
Text: Tables I-III summarize results from kinetic experiments that measured the inhibition of the 20S and 26S proteasomes, as well as cathepsin B and calpain. In these tables, Ki values are reported, which are dissociation constants for the equilibrium that is established when enzyme and inhibitor interact to form the enzyme:inhibitor complex.
The substances and assay conditions are briefly summarized in the footnotes to Table I. MG 101 and MG 102, also known as Calpain Inhibitor I and II, were purchased from Calbiochem as catalogue products.
Table V summarizes data for the inhibition of the 20S proteasome by various tripeptide aldehyde inhibitors.

Compound | pKi
CC(C)C[C@@H](C=O)NC(=O)[C@H](CC(C)C)NC(=O)[C@H](CC(C)C)NC(=O)OC(C)(C)C [MG 155] (Boc-Leu-Leu-Leu-aldehyde) | 7.27
CC(C)C[C@H](NC(=O)OCc1ccccc1)C(=O)N[C@@H](CC(C)C)C(=O)N[C@H](C=O)Cc1cc(I)c(O)c(I)c1 [MG 161] (Cbz-Leu-Leu-[Tyr(3,5-I2)]-aldehyde) | 7.19
CC(C)C[C@@H](C=O)NC(=O)[C@H](CC(C)C)NC(=O)[C@H](Cc1cccc2ccccc12)NC(=O)OCc1ccccc1 [MG 150] (Cbz-[1Nal]-Leu-Leu-aldehyde) | 9.40
CC(C)C[C@H](NC(=O)OCc1ccccc1)C(=O)N[C@@H](CC(C)C)C(=O)N[C@H](C=O)Cc1ccc(OCc2ccccc2)cc1 [MG 153] (Cbz-Leu-Leu-Tyr(Bn)-aldehyde) | 6.55
C#CC[C@@H](C=O)NC(=O)[C@H](CC(C)C)NC(=O)[C@H](CC(C)C)NC(=O)OCc1ccccc1 [MG 140] (Cbz-Leu-Leu-[Pra]-aldehyde) | 7.55
CC(C)C[C@H](NC(=O)OCc1ccccc1)C(=O)N[C@@H](CC(C)C)C(=O)N[C@H](C=O)CC(C)(C)C [MG 136] (Cbz-Leu-Leu-[tBuAla]-aldehyde) | 6.00
CC(C)C[C@H](NC(=O)OCc1ccccc1)C(=O)N[C@@H](CC(C)C)C(=O)N[C@H](C=O)Cc1ccc(Cl)cc1 [MG 158] (Cbz-Leu-Leu-[Phe(4-Cl)]-aldehyde) | 8.15
CC(C)C[C@H](NC(=O)OCc1ccccc1)C(=O)N[C@@H](CC(C)C)C(=O)N[C@H](C=O)Cc1c[nH]c2ccccc12 [MG 151] (Cbz-Leu-Leu-Trp-aldehyde) | 8.00
COc1ccc(C[C@@H](C=O)NC(=O)[C@H](CC(C)C)NC(=O)[C@H](CC(C)C)NC(=O)OCc2ccccc2)cc1 [MG 152] (Cbz-Leu-Leu-Tyr(Me)-aldehyde) | 8.22
CC(C)C[C@@H](C=O)NC(=O)[C@H](CC(C)C)NC(=O)[C@H](CC(C)C)NC(=O)OCc1ccccc1 [MG 132] (Cbz-Leu-Leu-Leu-aldehyde) | 8.05
CC(C)C[C@H](NC(=O)OCc1ccccc1)C(=O)N[C@@H](CC(C)C)C(=O)N[C@H](C=O)Cc1ccc([N+](=O)[O-])cc1 [MG 135] (Cbz-Leu-Leu-[Phe(4-NO2)]-aldehyde) | 6.54
CC(C)C[C@H](NC(=O)OCc1ccccc1)C(=O)N[C@@H](CC(C)C)C(=O)N[C@H](C=O)CCc1ccccc1 [MG 124] (Cbz-Leu-Leu-[hPhe]-aldehyde) | 7.23

Second part, the compound after the results:

pKi | Compound
9.31 | CC(C)C[C@@H](C=O)NC(=O)[C@H](C)NC(=O)[C@H](Cc1cccc2ccccc12)NC(=O)OCc1ccccc1 [MG 168] (Cbz-[1Nal]-Ala-Leu-aldehyde)
10.82 | CC(C)C[C@@H](C=O)NC(=O)[C@H](Cc1cccc2ccccc12)NC(=O)[C@H](Cc1ccc2ccccc2c1)NC(=O)OCc1ccccc1 [MG 167] (Cbz-[2Nal]-[1Nal]-Leu-aldehyde)
9.62 | CC(C)C[C@@H](C=O)NC(=O)[C@H](CC(C)C)NC(=O)[C@H](Cc1ccc2ccccc2c1)NC(=O)OCc1ccccc1 [MG 165] (Cbz-[2Nal]-Leu-Leu-aldehyde)
7.12 | CC(=O)N[C@@H](CC(C)C)C(=O)N[C@@H](CC(C)C)C(=O)N[C@H](C=O)CC(C)C [MG 154] (Ac-Leu-Leu-Leu-aldehyde)
7.22 | CC(C)C[C@H](NC(=O)OCc1ccccc1)C(=O)N[C@@H](CC(C)C)C(=O)N[C@H](C=O)CC1CCCCC1 [MG 129] (Cbz-Leu-Leu-[Cha]-aldehyde)
7.30 | CCC[C@@H](C=O)NC(=O)[C@H](CC(C)C)NC(=O)[C@H](CC1CCCCC1)NC(=O)OCc1ccccc1 [MG 141] (Cbz-[Cha]-Leu-[Nva]-aldehyde)
9.52 | CCC[C@@H](C=O)NC(=O)[C@H](CC(C)C)NC(=O)[C@H](Cc1cccc2ccccc12)NC(=O)OCc1ccccc1 [MG 142] (Cbz-[1Nal]-Leu-[Nva]-aldehyde)
10.46 | CC(C)C[C@@H](C=O)NC(=O)[C@H](Cc1cccc2ccccc12)NC(=O)[C@H](Cc1cccc2ccccc12)NC(=O)OCc1ccccc1 [MG 166] (Cbz-[1Nal]-[1Nal]-Leu-aldehyde)

From patent publication US20040097420A1, “Proteasome regulation of NF-kB activity” (Harvard College, priority 1994, published 2004)
